These results are taken from patent US11795151B2, “Benzotriazole compound” (MIYOSHI OIL & FAT CO., LTD., priority 2017, dated 2023).

Common to all, as to format: physicochemical
Data set [1] is described as follows: Evaluation of 5% weight reduction temperature (1) (TG/DTA). The following applies: temperature increasing rate 10° C./min, 25° C. to 550° C. The protocol: Compounds 1 to 8 and 10 to 12 were measured using a differential thermogravimetric simultaneous measurement device (TG/DTA6200, manufactured by SII Corporation) at a temperature increasing rate of 10° C./min and within a measurement range of 25° C. to 550° C., and the temperature at which 5 wt % reduction as the weight change (TG) took place was read (Table 6).

Data set [2] in a line: Evaluation of 5% weight reduction temperature (2) (TG/DTA). The note with it: temperature increasing rate 10° C./min, 25° C. to 550° C. The method, then: The compounds of the present invention were measured using a differential thermogravimetric simultaneous measurement device (TG/DTA6200, manufactured by SII Corporation) at a temperature increasing rate of 10° C./min and within a measurement range of 25° C. to 550° C., and the temperature at which 5 w % reduction as the weight change (TG) took place was read (Table 9).

The nature of data set [3]: Evaluation of UV absorption performance (2): absorbance spectra in chloroform. The note with it: 100 μM. The method, then:
Compounds 11 to 28 were diluted with 100 μM of chloroform and placed in a 10-mm quartz cell, and the absorbance spectra were measured using an ultraviolet-visible spectrophotometer (V-550, manufactured by JASCO Corporation)(FIGS. 11,12,14 to 29).
The absorption peak (maximum absorption wavelength: max) and absorbance in the wavelength range of 350 to 390 nm were read from the absorption spectra of Compounds 11 to 28, and a molar extinction coefficient (maximum molar extinction coefficient: εmax) of the peak was obtained by the following formula (Table 7): Molar extinction coefficient:εmax(L/(mol·cm))=A:Absorbance/[c:Mol concentration(mol/L)×1:Cell optical length(cm)] [Equation 3]
In addition, from the absorption spectra of Compounds 11 to 28, assuming that an intersection of a long-wavelength side absorption spectrum in the absorption peak at 350 to 390 nm and a baseline (a line where the slope of the absorption spectrum at […] is zero) is set as a peak end (for example: FIG. 1), the absolute value of the slope of the absorption peak on the long-wavelength side in the wavelength region at 350 to 390 nm was obtained by the following equation (Table 8): |Slope of absorption peak on long wavelength side in wavelength region of 350 to 390n|=|(Absorbance at peak end−Absorbance at absorption peak in wavelength region of 350 to 390 nm)/(Absorption wavelength at peak end−Wave length at absorption peak in wavelength region of 350 to 390 nm)| [Equation 4]

Data set [4] can be described thus: Evaluation of UV absorption performance (1): absorbance spectra in chloroform. The following applies: 100 μM. The protocol:
Compounds 1 to 12 were diluted with 100 μM of chloroform, placed in a 10-mm quartz cell, and the absorbance spectra were measured using an ultraviolet-visible spectrophotometer (V-550, manufactured by JASCO Corporation)(FIGS. 1 to 12).
The absorption peak (maximum absorption wavelength: λmax) and absorbance in the wavelength range of 350 to 390 nm were read from the absorption spectra of Compounds 1 to 12, and the molar extinction coefficient of the peak (maximum molar extinction coefficient: εmax) was obtained by the following equation (able 1). Molar extinction coefficient:εmax(L/(mol·cm))=A:Absorbance/[c:Mol concentration(mol/L)×1:Cell optical length(cm)] [Equation 1]
In addition, from the absorption spectra of Compounds 1 to 12, assuming that an intersection of a long-wavelength side absorption spectrum in the absorption peak at 350 to 390 nm and a baseline (a line where the slope of the absorption spectrum at 380 to 500 nm is zero) is set as a […] (for example: FIG. 1), the absolute value of the slope of the absorption peak on the long-wavelength side in the wavelength region at 350 to 390 nm was obtained by the following equation: |Slope of absorption peak on long wavelength side in wavelength region of 350 to 390 nm|=|(Absorbance at peak end−Absorbance at absorption peak in wavelength region of 350 to 390 nm)/(Absorption wavelength at peak end−Wave length at absorption peak in wavelength region of 350 to 390 nm)| [Equation 2]

Consider `Cc1cc(-n2nc3ccc(Cl)cc3n2)c(O)c(C(C)(C)C)c1` [Compound 12, reference compound], for which the “5% weight reduction temperature” value in data set [1] is 230 °C. The “5% weight reduction temperature” value in data set [2] came to 230 °C. Moreover, in data set [3] (10-mm quartz cell), the “Absorbance at absoprtion peak in wavelength region of 350 to 390 nm” value stood at 1.76, the “Absorbance at peak end” value is on record as 0.00722, the “Absorption wavelength at peak end” value came to 430 nm and the “Molar extinction coefficient at peak (maximum molar extinction coefficient: εmax)” value was found to be 16300 L/mol/cm. Besides, the “Wave length at absorption peak in wavelength region of 350 to 390 nm (maximum absorption wavelength: λmax)” value in data set [3] (10-mm quartz cell) was found to be 353 nm. Moreover, the “Absolute value of slope of absorption peak on long wavelength side in wavelength region of 350 to 390 nm” value in data set [3] (Equation 4) was determined as 0.032. In data set [4] (10-mm quartz cell), the “Absorbance at absorption peak in wavelength region of 350 to 390 nm” value is recorded as 1.53, the “Absorbance at peak end” value turned out to be 0.00617, the “Absorption wavelength at peak end” value is 423 nm and the “Molar extinction coefficient at peak (maximum molar extinction coefficient: εmax)” value is 15300 L/mol/cm. The “Wave length at absorption peak in wavelength region of 350 to 390 nm (maximum absorption wavelength: λmax)” value in data set [4] (10-mm quartz cell) stood at 353 nm. Besides, the “Absolute value of slope of absorption peak on long wavelength side in wavelength region of 350 to 390 nm” value in data set [4] (Equation 2) came out at 0.022.

Turning to `CCCCCCSc1ccc2nn(-c3cc(C)cc(C(C)(C)C)c3O)nc2c1` [Compound 29], in data set [2], the “5% weight reduction temperature” value was determined as 277 °C.

For the molecule `Cc1ccc(Sc2ccc3nn(-c4cc(C)cc(C(C)(C)C)c4O)nc3c2)cc1` [Compound 30], in data set [2], the “5% weight reduction temperature” value turned out to be 293 °C.
